Patent publication US10035840B2, “Targeted coagulation factors and method of using the same” (Bayer HealthCare LLC, priority 2008, dated 2018)
Positions of bridges follow the written chain, without caps; N, C: chain ends. Non-standard residues stand in square brackets, D forms with d. Residues, ends and D or L forms follow the SMILES beside them. Groups on a side chain read outwards from the residue. *: point of attachment. FITC = O=C1OC2(c3ccc(O)cc3Oc3cc(O)ccc32)c2ccc(NC(=S)*)cc21; Propanoyl(3-maleimido) = O=C1C=CC(=O)N1CCC(=O)*; hArg = N=C(N)NCCCC[C@H](N)C(=O)O; Ahx = NCCCCCC(=O)O; Mpa = O=C(O)CCS

Target: T1, GPIIb-IIIa (Homo sapiens, UniProt P05106+P08514)
T1 construct: purchased Innovative Research, Novi, Mich
T1 sequence (P08514 32-887 limits assumed): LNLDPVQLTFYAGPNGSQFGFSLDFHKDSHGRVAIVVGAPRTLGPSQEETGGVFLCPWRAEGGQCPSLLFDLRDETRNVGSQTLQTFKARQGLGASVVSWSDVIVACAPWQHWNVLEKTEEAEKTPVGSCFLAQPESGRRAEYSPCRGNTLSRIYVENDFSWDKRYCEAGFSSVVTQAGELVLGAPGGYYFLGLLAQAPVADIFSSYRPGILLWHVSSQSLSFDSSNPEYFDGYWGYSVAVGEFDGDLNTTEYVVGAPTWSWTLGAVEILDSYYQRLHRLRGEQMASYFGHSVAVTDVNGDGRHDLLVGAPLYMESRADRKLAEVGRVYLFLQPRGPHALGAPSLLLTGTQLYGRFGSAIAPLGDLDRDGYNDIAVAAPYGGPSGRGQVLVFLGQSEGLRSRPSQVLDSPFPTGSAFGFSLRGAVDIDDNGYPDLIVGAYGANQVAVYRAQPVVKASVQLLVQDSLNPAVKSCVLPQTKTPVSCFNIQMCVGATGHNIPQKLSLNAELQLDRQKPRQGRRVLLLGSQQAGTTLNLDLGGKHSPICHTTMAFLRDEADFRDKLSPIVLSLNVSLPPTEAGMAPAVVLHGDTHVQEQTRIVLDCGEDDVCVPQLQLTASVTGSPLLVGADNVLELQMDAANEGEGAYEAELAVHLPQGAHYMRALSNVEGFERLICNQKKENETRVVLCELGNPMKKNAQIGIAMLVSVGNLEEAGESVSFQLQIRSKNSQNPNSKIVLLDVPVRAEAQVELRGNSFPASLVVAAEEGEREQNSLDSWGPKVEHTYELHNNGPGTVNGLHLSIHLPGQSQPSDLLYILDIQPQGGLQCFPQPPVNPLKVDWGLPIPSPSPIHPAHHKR
T1 sequence (P05106 27-788): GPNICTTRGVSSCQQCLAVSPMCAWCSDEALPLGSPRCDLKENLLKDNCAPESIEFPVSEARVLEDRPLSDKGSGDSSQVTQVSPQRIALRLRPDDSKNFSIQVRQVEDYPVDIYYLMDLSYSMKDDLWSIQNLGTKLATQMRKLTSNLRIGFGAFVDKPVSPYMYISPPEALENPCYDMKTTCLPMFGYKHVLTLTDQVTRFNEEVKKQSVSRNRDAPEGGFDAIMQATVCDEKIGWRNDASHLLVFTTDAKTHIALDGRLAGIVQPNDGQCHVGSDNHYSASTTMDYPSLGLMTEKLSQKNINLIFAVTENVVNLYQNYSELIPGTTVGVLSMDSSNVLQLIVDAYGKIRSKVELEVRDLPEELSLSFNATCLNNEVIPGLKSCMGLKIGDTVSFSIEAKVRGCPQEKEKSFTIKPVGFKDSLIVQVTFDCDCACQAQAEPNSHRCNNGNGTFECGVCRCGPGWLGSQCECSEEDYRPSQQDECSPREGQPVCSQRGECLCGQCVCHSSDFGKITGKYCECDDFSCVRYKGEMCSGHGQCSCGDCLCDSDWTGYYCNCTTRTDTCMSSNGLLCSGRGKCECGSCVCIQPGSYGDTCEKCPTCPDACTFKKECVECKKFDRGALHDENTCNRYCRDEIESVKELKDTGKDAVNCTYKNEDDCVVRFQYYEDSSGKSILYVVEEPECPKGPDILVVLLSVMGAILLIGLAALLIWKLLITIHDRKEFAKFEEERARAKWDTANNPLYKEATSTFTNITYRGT
Experiment: Solid phase binding assay: competition of fibrinogen binding to immobilized GPIIb-IIIa
Procedure: Peptide binding to GPIIb-IIIa was measured using a solid phase binding assay in which competition of fibrinogen binding by testing compounds is measured. The assay was performed as follows. Purified GPIIb-IIIa (Innovative Research, Novi, Mich.) was coated onto 96-well Immulon-B plates at […]×2 μg/mL, diluted in Buffer A (20 mM Tris pH 7.5, 0.15 M NaCl, and 1 mM each of MgCl2, CaCl2, and MnCl2). After overnight incubation at 4° C., the plate was blocked for 1 hour at 30° C., with 3.5% BSA in Buffer B (50 mM Tris pH 7.5, 0.1 M NaCl, and 1 mM each of MgCl2, CaCl2, and MnCl2). After washing 3 times with Buffer B, diluted peptide or protein solutions were combined with 3.5 nM biotinylated fibrinogen in 0.1% BSA/Buffer B and added to the wells, incubating at 30° C. for 2 hr. After washing (3 times, Buffer B), 1:4000 streptavidin-horseradish peroxidase (HRP) was added (Pierce Chemical Co., Rockford, Ill.) for 1 hour at 30° C. After a final washing step (3 times, Buffer B), the plate was developed with Ultra TMB (3,3′,5,5′-tetramentylbenzidine) (Pierce Chemical Co., Rockford, Ill.) for 5 minutes, stopping with an equal volume of 2 M sulfuric acid. Plate absorbances were read at 450 nm, and IC50 values determined using a 4-parameter logistic fit.

SMILES	Blocking of fibrinogen binding to immobilized GPIIb-IIIa, in words	IC50 (3.5 nM biotinylated fibrinogen, mean +/- spread, N in separate column or in text, read-out: IC50, inhibition of fibrinogen binding to immobilized GPIIb/IIIa) [nM]
N=C(N)NCCCC[C@@H]1NC(=O)CCSSC[C@@H](C(=O)N[C@@H](CCCCNC(=O)CCCCCNC(=O)CCN2C(=O)C=CC2=O)C(N)=O)NC(=O)[C@@H]2CCCN2C(=O)[C@H](Cc2c[nH]c3ccccc23)NC(=O)[C@H](CC(=O)O)NC(=O)CNC1=O [BHRF-1] ([Mpa][hArg]GDWPCK([Ahx-Propanoyl(3-maleimido)])-NH2; disulfide 1-7)	potently blocked	–
N=C(N)NCCCC[C@@H]1NC(=O)CCSSC[C@@H](C(=O)N[C@@H](CCCCNC(=O)CCCCCNC(=O)CCN2C(=O)C=CC2=O)C(=O)N[C@@H](CCCCNC(=S)Nc2ccc3c(c2)C(=O)OC32c3ccc(O)cc3Oc3cc(O)ccc32)C(N)=O)NC(=O)[C@@H]2CCCN2C(=O)[C@H](Cc2c[nH]c3ccccc23)NC(=O)[C@H](CC(=O)O)NC(=O)CNC1=O [BHRF-3] ([Mpa][hArg]GDWPCK([Ahx-Propanoyl(3-maleimido)])K(FITC)-NH2; disulfide 1-7)	potently blocked	–
N=C(N)NCCCC[C@@H]1NC(=O)CCSSC[C@@H](C(N)=O)NC(=O)[C@@H]2CCCN2C(=O)[C@H](Cc2c[nH]c3ccccc23)NC(=O)[C@H](CC(=O)O)NC(=O)CNC1=O [Integrelin, reference compound] ([Mpa][hArg]GDWPC-NH2; disulfide 1-7)	–	1.3
